Measured values published in patent US10105357B2, “Indication of antibiotic drugs for preparation of cancer inhibition pharmaceutical composition” (LAUNX BIOMEDICAL CO., LTD., priority 2014, dated 2018).
Where two headings read alike, the source gives them in different places.

Tests used:
[1] = tested on: MDA-MB-231 (Mammary Gland, Adenocarcinoma); assay: Cell viability analysis, breast cancer MDA-MB-231; type: cell-based, human; settings: Homo sapiens, MDA-MB-231, 72 h, read-out: The results of antibiotic drug inhibiting cancer cell lines (cell viability analysis), MDA-MB231
[2] = tested on: 786-O (Renal adenocarcinoma); assay: Cell viability analysis, renal cancer 786-O; type: cell-based, human; settings: Homo sapiens, 786-0, 72 h, read-out: The results of antibiotic drug inhibiting cancer cell lines (cell viability analysis), 786-O
[3] = tested on: TOV-21G; assay: Cell viability analysis, ovarian cancer TOV-21G; type: cell-based, human; settings: Homo sapiens, TOV21G, 72 h, read-out: The results of antibiotic drug inhibiting cancer cell lines (cell viability analysis), TOV-21G
[4] = tested on: TSGH-8301 (Urinary Bladder Carcinoma); assay: Cell viability analysis, bladder cancer TSGH-8301; type: cell-based, human; settings: Homo sapiens, 72 h
[5] = tested on: HI650 (Lung Adenocarcinoma); assay: Cell viability analysis, lung cancer HI650; type: cell-based, human; settings: Homo sapiens, NCI-H1650, 72 h
[6] = tested on: LoVo (Colorectal Adenocarcinoma); assay: Cell viability analysis, colon cancer LoVo; type: cell-based, human; settings: Homo sapiens, LoVo, 72 h
[7] = tested on: AGS (Gastric Adenocarcinoma); assay: Cell viability analysis, gastric cancer AGS; type: cell-based, human; settings: Homo sapiens, 72 h
[8] = tested on: BxPC-3; assay: Cell viability analysis, pancreatic cancer BxPC-3; type: cell-based, human; settings: Homo sapiens, BXPC-3, 72 h, read-out: The results of antibiotic drug inhibiting cancer cell lines (cell viability analysis), BxPC-3
[9] = tested on: NIH: OVCAR-3; assay: Cell viability analysis, ovarian cancer NIH: OVCAR-3; type: cell-based, human; settings: Homo sapiens, OVCAR-3, 72 h, read-out: The results of antibiotic drug inhibiting cancer cell lines (cell viability analysis), NIH-OVCAR-3
[10] = tested on: U-2OS; assay: Cell viability analysis, osteosarcoma U-2OS; type: cell-based, human; settings: Homo sapiens, U2OS, 72 h, read-out: The results of antibiotic drug inhibiting cancer cell lines (cell viability analysis), U2OS
[11] = tested on: HL-60 (Acute Promyelocytic Leukemia); assay: Cell viability analysis, leukemia HL-60; type: cell-based, human; settings: Homo sapiens, HL-60, 72 h, read-out: cell viability (survival rate), HL-60, drug 10 μM, 72 hours, WST-1, OD450 nm
[12] = tested on: SAS (Tongue squamous cell carcinoma); assay: Cell viability analysis, tongue cancer SAS; type: cell-based, human; settings: Homo sapiens, 72 h, read-out: The results of antibiotic drug inhibiting cancer cell lines (cell viability analysis), SAS
[13] = tested on: HepG2 (Hepatocellular Carcinoma); assay: Cell viability analysis, hepatic cancer HepG2; type: cell-based, human; settings: Homo sapiens, HepG2, 72 h
[14] = tested on: C-33A (Cervical carcinoma); assay: Cell viability analysis, cervical cancer C-33A; type: cell-based, human; settings: Homo sapiens, C-33-A, 72 h, read-out: The results of antibiotic drug inhibiting cancer cell lines (cell viability analysis), C-33A
[15] = tested on: BCC (basal cell carcinoma); assay: Cell viability analysis, skin cancer BCC; type: cell-based, human; settings: Homo sapiens, 72 h, read-out: The results of antibiotic drug inhibiting cancer cell lines (cell viability analysis), BCC
[16] = tested on: T24; assay: Cell viability analysis, bladder cancer T24; type: cell-based, human; settings: Homo sapiens, T-24, 72 h, read-out: The results of antibiotic drug inhibiting cancer cell lines (cell viability analysis), T24
[17] = tested on: HeLa (Cervix Adenocarcinoma); assay: Cell viability analysis, cervical cancer HeLa; type: cell-based, human; settings: Homo sapiens, HeLa, 72 h
[18] = tested on: MKN-45 (Gastric Adenocarcinoma); assay: Cell viability analysis, gastric cancer MKN-45; type: cell-based, human; settings: Homo sapiens, MKN-45, 72 h
[19] = tested on: HCT116 (p53+) (Colorectal Carcinoma)
[20] = tested on: Hep3B (hepatocellular carcinoma); assay: Cell viability analysis, hepatic cancer Hep3B; type: cell-based, human; settings: Homo sapiens, Hep3B, 72 h, read-out: The results of antibiotic drug inhibiting cancer cell lines (cell viability analysis), Hep3B
[21] = tested on: A375 (Amelanotic Melanoma); assay: Cell viability analysis, skin cancer A375; type: cell-based, human; settings: Homo sapiens, A-375, 72 h
[22] = tested on: A549 (Lung Adenocarcinoma); assay: Cell viability analysis, lung cancer A549; type: cell-based, human; settings: Homo sapiens, A549, 72 h
[23] = tested on: MCF7 (Mammary Gland, Adenocarcinoma); assay: Cell viability analysis, breast cancer MCF7; type: cell-based, human; settings: Homo sapiens, MCF7, 72 h
[24] = tested on: cancer cell lines; assay: Cell viability analysis (WST-1) on cancer cell lines; type: cell-based, human; settings: drug 10 μM, 72 hours, WST-1; Table 3
[25] = tested on: PC3 (p53−) (Prostate Adenocarcinoma); assay: Cell viability analysis, prostate cancer PC3; type: cell-based, human; settings: Homo sapiens, 72 h
[26] = tested on: AsPC-1; assay: Cell viability analysis, pancreatic cancer AsPC-1; type: cell-based, human; settings: Homo sapiens, ASPC1, 72 h, read-out: The results of antibiotic drug inhibiting cancer cell lines (cell viability analysis), AsPC-1
[27] = read-out: The results of antibiotic drug inhibiting cancer cell lines (cell viability analysis), TSGH-8301, TSGH-8301, repeated experiment
[28] = read-out: cell viability (survival rate), TSGH, drug 10 μM, 72 hours, WST-1, OD450 nm
[29] = read-out: The results of antibiotic drug inhibiting cancer cell lines (cell viability analysis), H1650, H1650, repeated experiment
[30] = read-out: cell viability (survival rate), H1650, drug 10 μM, 72 hours, WST-1, OD450 nm
[31] = read-out: The results of antibiotic drug inhibiting cancer cell lines (cell viability analysis), LoVo, repeated experiment
[32] = read-out: cell viability (survival rate), LoVo, drug 10 μM, 72 hours, WST-1, OD450 nm
[33] = read-out: The results of antibiotic drug inhibiting cancer cell lines (cell viability analysis), AGS, repeated experiment
[34] = read-out: cell viability (survival rate), AGS, drug 10 μM, 72 hours, WST-1, OD450 nm
[35] = read-out: The results of antibiotic drug inhibiting cancer cell lines (cell viability analysis), HepG2, HepG2, repeated experiment
[36] = read-out: cell viability (survival rate), HepG2, drug 10 μM, 72 hours, WST-1, OD450 nm
[37] = read-out: The results of antibiotic drug inhibiting cancer cell lines (cell viability analysis), HeLa, repeated experiment
[38] = read-out: cell viability (survival rate), HeLa, drug 10 μM, 72 hours, WST-1, OD450 nm
[39] = read-out: The results of antibiotic drug inhibiting cancer cell lines (cell viability analysis), MKN-45, MKN-45, repeated experiment
[40] = read-out: cell viability (survival rate), MKN-45, drug 10 μM, 72 hours, WST-1, OD450 nm
[41] = read-out: The results of antibiotic drug inhibiting cancer cell lines (cell viability analysis), A375, A375, repeated experiment
[42] = read-out: cell viability (survival rate), A375, drug 10 μM, 72 hours, WST-1, OD450 nm
[43] = read-out: The results of antibiotic drug inhibiting cancer cell lines (cell viability analysis), A549, A549, repeated experiment
[44] = read-out: cell viability (survival rate), A549, drug 10 μM, 72 hours, WST-1, OD450 nm
[45] = read-out: The results of antibiotic drug inhibiting cancer cell lines (cell viability analysis), MCF-7, MCF-7, repeated experiment
[46] = read-out: cell viability (survival rate), MCF7, drug 10 μM, 72 hours, WST-1, OD450 nm
[47] = read-out: The results of antibiotic drug inhibiting cancer cell lines (cell viability analysis), PC-3, PC-3, repeated experiment
[48] = read-out: cell viability (survival rate), PC3, drug 10 μM, 72 hours, WST-1, OD450 nm

| SMILES | viability at 10 µM [1] | viability at 10 µM [2] | viability at 10 µM [3] | viability at 10 µM [4, 27] | viability at 10 µM [4, 28] | viability at 10 µM [5, 29] | viability at 10 µM [5, 30] | viability at 10 µM [6, 31] | viability at 10 µM [6, 32] | viability at 10 µM [7, 33] | viability at 10 µM [7, 34] | viability at 10 µM [8] | viability at 10 µM [9] | viability at 10 µM [10] | viability at 10 µM [11] | viability at 10 µM [13, 35] | viability at 10 µM [13, 36] | viability at 10 µM [14] | viability at 10 µM [16] | viability at 10 µM [17, 37] | further results |
| --- | --- | --- | --- | --- | --- | --- | --- | --- | --- | --- | --- | --- | --- | --- | --- | --- | --- | --- | --- | --- | --- |
| CC1(C)S[C@@H]2[C@H](NC(=O)Cc3ccccc3)C(=O)N2[C@H]1C(=O)O [Benzylpenicillin sodium] | 94.7% | 93.2% | 112% | 131% | 39.6% | 121% | 57.1% | 78.3% | 62.8% | 110% | 54.8% | 95.3% | 110% | 71.5% | 86.7% | 108% | 86.4% | 110% | 108% | 107% | viability at 10 µM [12]: 67%; viability at 10 µM [15]: 97.7%; viability at 10 µM [17, 38]: 57.1%; viability at 10 µM [18, 39]: 124%; viability at 10 µM [18, 40]: 43.1%; viability [19]: 94%; viability at 10 µM [20]: 113%; viability at 10 µM [21, 41]: 113%; viability at 10 µM [21, 42]: 51.7%; viability at 10 µM [22, 43]: 97.2%; viability at 10 µM [22, 44]: 36.4%; viability at 10 µM [23, 45]: 86.9%; viability at 10 µM [23, 46]: 31.3%; inhibition effect on different cancer cell lines [24]: significant inhibition effect; viability at 10 µM [25, 47]: 106%; viability at 10 µM [25, 48]: 36.1% |
| C=C1[C@H](CO)[C@@H](O)C[C@@H]1n1cnc2c(=O)[nH]c(N)nc21 [Entecavir hydrate] | 98.9% | 92.7% | 85.5% | 103% | 53% | 84.1% | 80.8% | 96.7% | 91.6% | 88.7% | 46.4% | 97.2% | 109% | 85.3% | 74.1% | 88.9% | 98.8% | 96.7% | 96.4% | 76.9% | viability at 10 µM [15]: 69.5%; viability at 10 µM [17, 38]: 99.4%; viability at 10 µM [18, 39]: 92.5%; viability at 10 µM [18, 40]: 59.7%; viability [19]: 99.9%; viability at 10 µM [26]: 98.4%; viability at 10 µM [20]: 90.8%; viability at 10 µM [21, 41]: 89%; viability at 10 µM [21, 42]: 98.6%; viability at 10 µM [22, 43]: 104%; viability at 10 µM [22, 44]: 57.4%; viability at 10 µM [23, 45]: 92.9%; viability at 10 µM [23, 46]: 58.6%; inhibition effect on different cancer cell lines [24]: significant inhibition effect; viability at 10 µM [25, 47]: 118%; viability at 10 µM [25, 48]: 81.2% |
| Cc1cc2c(s1)Nc1ccccc1N=C2N1CCN(C)CC1 [Olanzapine (Zyprexa), Olanzapine] | 111% | 91.8% | 105% | 152% | 58.7% | 107% | 109% | 81.4% | 88.5% | 122% | 84.2% | 65.9% | 96.8% | 66% | 118% | 114% | 93.3% | 98.2% | 110% | 121% | viability at 10 µM [12]: 59.3%; viability at 10 µM [17, 38]: 106%; viability at 10 µM [18, 39]: 125%; viability at 10 µM [18, 40]: 80.1%; viability [19]: 124%; viability at 10 µM [26]: 84.2%; viability at 10 µM [20]: 132%; viability at 10 µM [21, 41]: 98.3%; viability at 10 µM [21, 42]: 91.9%; viability at 10 µM [22, 43]: 106%; viability at 10 µM [22, 44]: 88%; viability at 10 µM [23, 45]: 86.8%; viability at 10 µM [23, 46]: 125%; viability at 10 µM [25, 47]: 113%; viability at 10 µM [25, 48]: 92.2% |
| Cc1noc(NS(=O)(=O)c2ccc(N)cc2)c1C [Sulfisoxazole] | 104% | 93.3% | 84.5% | 105% | 93% | 75.9% | 73.9% | 112% | 68.8% | 108% | 88.7% | 67.1% | 108% | 88.6% | 95.2% | 122% | 108% | 116% | 90.7% | 120% | viability at 10 µM [15]: 102%; viability at 10 µM [17, 38]: 78.9%; viability at 10 µM [18, 39]: 105%; viability at 10 µM [18, 40]: 48.4%; viability [19]: 97.9%; viability at 10 µM [26]: 80.1%; viability at 10 µM [20]: 110%; viability at 10 µM [21, 41]: 107%; viability at 10 µM [21, 42]: 65.5%; viability at 10 µM [22, 43]: 105%; viability at 10 µM [22, 44]: 39.4%; viability at 10 µM [23, 45]: 106%; viability at 10 µM [23, 46]: 46.1%; inhibition effect on different cancer cell lines [24]: significant inhibition effect; viability at 10 µM [25, 47]: 111%; viability at 10 µM [25, 48]: 36.1% |
